Like-named read-outs stand apart in the source and are kept apart here.
Tested on: P4 G4
Test: In vitro translation (IVT) assays
Type: biochemical, SARS-CoV-2

| Compound | IVT of P4-Mut (P4-Mut (G/A mutations)) | IVT of P4-Mut |
| --- | --- | --- |
| NCCOc1cc(C(=O)Nc2cc(OCCN3CCCC3)c3ccccc3n2)nc(C(=O)Nc2cc(OCCN3CCCC3)c3ccccc3n2)c1 [PDP] | not for P4-Mut | – |
| C[n+]1ccc(-c2c3nc(c(-c4cc[n+](C)cc4)c4ccc([nH]4)c(-c4cc[n+](C)cc4)c4nc(c(-c5cc[n+](C)cc5)c5ccc2[nH]5)C=C4)C=C3)cc1 [TMPyP4, 5,10,15,20-tetrakis-(N-methyl-4-pyridyl)porphine] | – | not for P4-Mut |
